The values below come from patent US12187705B2, “Heteroaryl-triazole and heteroaryl-tetrazole compounds as pesticides” (Bayer Aktiengesellschaft, priority 2018, dated 2025).

Common to all, as to assay type: in vivo
In one experiment the test system is Nezara viridula. Put plainly: Nezara viridula spray test. The note with it: in Hordeum vulgare, 96 h. In a few lines: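 Barley plants infested with stink bug larvae were sprayed with compound diluted in water containing 1000 ppm emulsifier. Mortality (%) was scored after 4 days, 100% meaning all bugs killed.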
The subject of experiment [1] is Ctenocephalides felis. Put plainly: Ctenocephalides felis oral test. The note with it: Ctenocephalides felis, in Bos taurus, po, 48 h. In a few lines:
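About 20 adult unfed fleas fed through parafilm on cattle blood containing compound (DMSO concentrate diluted in blood); blood held at 37° C., fleas at room temperature. Mortality in % scored after 2 days (100% = all killed).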

The subject of a further experiment is Myzus persicae. Put plainly: Myzus persicae oral test. The note with it: 120 h. An outline of the steps: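 Feeding test: compound diluted in water was combined with IPL41 insect medium (33%+15% sugar) under a parafilm seal. A mixed population of green peach aphids fed through the membrane. Mortality (%) was scored after 5 days.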
For another experiment, the system named is Nilaparvata lugens. Put plainly: Nilaparvata lugens spray test. The note with it: Nilaparvata lugens, in Oryza sativa, 96 h. In a few lines: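 Rice plants sprayed with compound diluted in water containing 1000 ppm emulsifier, then infested with brown planthopper. Mortality (%) scored after 4 days, 100% meaning all insects killed.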
A further experiment relates to Spodoptera frugiperda. Nature of the experiment: Spodoptera frugiperda spray test. Particulars: in Zea mays, 168 h. In a few lines:
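Leaf-spray assay on maize: sections treated with active ingredient at the desired concentration in emulsifier-containing water (1000 ppm) and, once dry, exposed to armyworm caterpillars. Kill rate is expressed in percent after seven days.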

The subject of experiment [2] is Ctenocephalides felis. Nature of the experiment: Ctenocephalides felis in-vitro contact test adult cat flea. The note with it: Ctenocephalides felis; 5 μg/cm^2 (=500 g/ha), after 48 hours; read-out: efficacy (fleas dead or moribund). An outline of the steps:
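Efficacy (% dead or moribund) was scored 48 h after adult Ctenocephalides felis were confined in tubes coated with the acetone-applied compound (900 ppm, 5 μg/cm^2). Moribund status was judged by failure to escape a 45-50° C heating plate within 5 minutes.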

For a further experiment, the system named is Rhipicephalus sanguineus. Put plainly: Rhipicephalus sanguineus in-vitro contact test with adult brown dog ticks. The note with it: Rhipicephalus sanguineus; 5 μg/cm^2 (=500 g/ha), after 48 hours; read-out: efficacy (ticks dead or moribund). In a few lines: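 Compound in acetone coated onto inner walls of glass tubes; 900 ppm gives 5 μg/cm^2. Five to ten adult ticks held 48 h at room temperature, then heated at 45-50° C. up to 5 min; ticks unable to climb away scored dead or moribund, efficacy as % dead/moribund.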

The test system of experiment [3] is Aedes aegypti strain MONHEIM. Nature of the experiment: Aedes aegypti test (AEDSAE surface treatment & contact assay). The note with it: 24 hours after contact, read-out: efficacy (mortality); for mortality at 4 mg/m2: surface concentration 4 mg/m^2, 30 minutes exposure; for mortality at 20 mg/m2: surface concentration 20 mg/m^2, 30 minutes exposure. An outline of the steps:
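Compound dissolved in acetone (2 mg/ml) with 2000 ppm rapeseed oil methyl ester and dried onto a glazed tile. Adult mosquitoes held on the treated surface for 30 minutes exposure. Percent mortality scored 24 hours after contact.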

Experiment [4] concerns Musca domestica strain WHO-N. Nature of the experiment: Musca domestica test (MUSCDO surface treatment & contact assay). Particulars: 24 hours after contact, read-out: efficacy (mortality); for mortality at 20 mg/m2: surface concentration 20 mg/m^2, 30 minutes exposure. In a few lines:
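Compound was dissolved in acetone (2 mg/ml) with 2000 ppm rapeseed oil methyl ester and pipetted onto glazed tiles. After the acetone evaporated, adult WHO-N flies were exposed to the dried surface for 30 minutes. Percent mortality was recorded 24 hours after contact.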

Structures are written as SMILES.

As a reminder, the mortality is the share of the test organisms that died.

In the case of `CCN(C(=O)c1cc(Cl)cc(S(C)(=O)=O)c1)C(C)c1ncnn1-c1ncccn1` (stereo not drawn) [Example I-040, 3-chloro-N-ethyl-5-(methylsulfonyl)-N-{1-[1-(pyrimidin-2-yl)-1H-1,2,4-triazol-5-yl]ethyl}benzamide], the mortality at 500 g/ha with Nezara viridula, with Nilaparvata lugens and in the experiment with Spodoptera frugiperda was 100% in each case. This molecule also came in with a mortality at 100 ppm with Ctenocephalides felis [1] of 100%. For the same molecule, the mortality at 4 ppm with Myzus persicae was found to be 100%. For the same molecule, the pest or weed control at 5 µg/cm2, 5 µg/cm2 in the experiment on Ctenocephalides felis [2] and in the experiment with Rhipicephalus sanguineus was 100% throughout. In experiment [3], the mortality at 4 mg/m2 was 80 to 100%. Moreover, the mortality at 20 mg/m2 in experiment [3] lay in the range of 90 to 100%; in [4], 80 to 100%.
Consider `C[C@@H](NC(=O)c1cc(Cl)cc(S(=O)(=O)C2CC2)c1)c1ncnn1-c1ncccn1` [Example I-042], for which the mortality at 500 g/ha in the experiment on Nezara viridula amounted to 100%; in the experiment with Nilaparvata lugens, 100%; in the experiment with Spodoptera frugiperda, 83%. The same molecule displayed a mortality at 100 ppm in the experiment on Ctenocephalides felis [1] of 100%. The mortality at 4 ppm with Myzus persicae turned out to be 100%. In addition, the pest or weed control at 5 µg/cm2, 5 µg/cm2 in the experiment with Ctenocephalides felis [2] came out at 100%; in the experiment on Rhipicephalus sanguineus it was 80%. Also, the mortality at 4 mg/m2 in experiment [3] fell in the range of 80 to 100%; in [4] (surface concentration 4 mg/m^2, 30 minutes exposure), 80 to 100%. Besides, the mortality at 20 mg/m2 lay within 90 to 100% in experiment [3] and 80 to 100% in experiment [4].
